# Results reported in patent publication US9169270B2, “1-phenyl-substituted heterocyclyl derivatives and their use as prostaglandin D2 receptor modulators” (Actelion Pharmaceuticals Ltd., priority 2012, dated 2015).
# Biological target: hCRTH2 receptor (Homo sapiens (Human), UniProt Q9Y5Y4)
# Assay: hCRTH2 receptor membranes radioligand (3H-PGD2) displacement assay
# Conditions: hCRTH2 membrane fragments, Binding-Buffer with 0.1% BSA
# Protocol: Biological Assays: Preparation of hCRTH2 Receptor Membranes and Radioligand Displacement Assay:
# First, recombinant HEK293-hCRTH2 cells were detached from culture plates into 5 ml buffer A/plate (Buffer A: 5 mM Tris, 1 mM MgCl2-6H2O pH=7.4) using a rubber policeman. Cells were then transferred into centrifugation tubes and centrifuged for 5 min at 400 g. The cell pellet was resuspended in the same buffer and tubes were frozen at −80° C. Cells were thawed and membrane fragments were generated by homogenization using a polytron homogenizer (30 seconds). The membrane fragments were then centrifuged at 3000 g for 20 minutes and resuspended in buffer C (Buffer C: 75 mM Tris, 25 mM MgCl2, 250 mM Saccharose pH 7.4). Aliquots of membrane fragments were stored at −20° C.
# Binding assay was performed in a final assay volume of 250 μl. First, 25 μl of test compound, previously diluted in Binding-Buffer (Binding-Buffer: 50 mM Tris-Base, 100 mM NaCl, 1 mM EDTA, 0.1% BSA (protease free), 0.01% NaN3, 10 mM MnCl2, pH 7.0) was placed into each well. […] Binding assay was started by addition of 100 μl CRTH2 membrane fragments, reaching a final concentration of 20 μg/well. For non-specific binding, PGD2 was added to the reaction mixture to […] final concentration. This assay mix was incubated for 90 minutes at room temperature and then filtered through a GF/C filter 96-well plate which was pre-soaked for 3 hours in 0.5% polyethyleneimine (PEI). The filter-wells were washed three times with ice cold Binding-Buffer. Then, 40 μl of Microscint-40 (Packard) was added to each well and the retained radioactivity quantified in a Topcount (Packard).
# hCRTH2 receptor, sequence (Q9Y5Y4 whole entry): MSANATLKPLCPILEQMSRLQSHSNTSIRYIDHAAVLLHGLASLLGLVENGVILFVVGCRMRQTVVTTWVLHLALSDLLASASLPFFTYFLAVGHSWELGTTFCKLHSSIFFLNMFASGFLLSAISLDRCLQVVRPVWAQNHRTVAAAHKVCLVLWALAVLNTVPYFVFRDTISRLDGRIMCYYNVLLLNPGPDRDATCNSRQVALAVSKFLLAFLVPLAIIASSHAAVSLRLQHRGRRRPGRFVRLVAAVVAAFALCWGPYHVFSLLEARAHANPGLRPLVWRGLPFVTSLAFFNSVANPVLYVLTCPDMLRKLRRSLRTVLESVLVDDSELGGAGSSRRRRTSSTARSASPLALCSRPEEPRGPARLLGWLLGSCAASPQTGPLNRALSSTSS
row,IC50 [µM],SMILES
1,0.0094,"O=C(O)COc1ccc(Cl)cc1C1c2scnc2CCN1C(=O)NCc1ccccc1F (racemic) [Example 1, (±)-{4-Chloro-2-[5-(2-fluoro-benzylcarbamoyl)-4,5,6,7-tetrahydro-thiazolo[5,4-c]pyridin-4-yl]-phenoxy}-acetic acid]"
2,0.0389,"O=C(O)COc1ccc(Cl)cc1C1c2scnc2CCN1C(=O)NCc1cccc(F)c1 (racemic) [Example 2, (±)-{4-Chloro-2-[5-(3-fluoro-benzylcarbamoyl)-4,5,6,7-tetrahydro-thiazolo[5,4-c]pyridin-4-yl]-phenoxy}-acetic acid]"
3,0.124,"O=C(O)COc1ccc(Cl)cc1C1c2scnc2CCN1C(=O)NCc1ccc(F)cc1 (racemic) [Example 3, (±)-{4-Chloro-2-[5-(4-fluoro-benzylcarbamoyl)-4,5,6,7-tetrahydro-thiazolo[5,4-c]pyridin-4-yl]-phenoxy}-acetic acid]"
4,0.0065,"O=C(O)COc1ccc(Cl)cc1C1c2sc(C(F)(F)F)nc2CCN1C(=O)OCc1ccccc1 (racemic) [Example 12, (±)-4-(2-Carboxymethoxy-5-chloro-phenyl)-2-trifluoromethyl-6,7-dihydro-4H-thiazolo[5,4-c]pyridine-5-carboxylic acid benzyl ester]"
5,0.0648,"CC(C)c1nc2c(s1)C(c1cc(Cl)ccc1OCC(=O)O)N(C(=O)OCc1ccccc1)CC2 (racemic) [Example 13, (±)-4-(2-Carboxymethoxy-5-chloro-phenyl)-2-isopropyl-6,7-dihydro-4H-thiazolo[5,4-c]pyridine-5-carboxylic acid benzyl ester]"
6,0.0657,"O=C(O)COc1ccc(Cl)cc1C1c2sc(C3CC3)nc2CCN1C(=O)OCc1ccccc1 (racemic) [Example 14, (±)-4-(2-Carboxymethoxy-5-chloro-phenyl)-2-cyclopropyl-6,7-dihydro-4H-thiazolo[5,4-c]pyridine-5-carboxylic acid benzyl ester]"
7,0.0062,"Cc1nc2c(s1)C(c1cc(Cl)ccc1OCC(=O)O)N(C(=O)OCc1ccccc1)CC2 (racemic) [Example 15, (±)-4-(2-Carboxymethoxy-5-chloro-phenyl)-2-methyl-6,7-dihydro-4H-thiazolo[5,4-c]pyridine-5-carboxylic acid benzyl ester]"
8,0.0142,"CCc1nc2c(s1)C(c1cc(Cl)ccc1OCC(=O)O)N(C(=O)OCc1ccccc1)CC2 (racemic) [Example 16, (±)-4-(2-Carboxymethoxy-5-chloro-phenyl)-2-ethyl-6,7-dihydro-4H-thiazolo[5,4-c]pyridine-5-carboxylic acid benzyl ester]"
9,0.003,"O=C(O)COc1ccc(Cl)cc1C1c2sc(Br)nc2CCN1C(=O)OCc1ccccc1 (racemic) [Example 20, (±)-2-Bromo-4-(2-carboxymethoxy-5-chloro-phenyl)-6,7-dihydro-4H-thiazolo[5,4-c]pyridine-5-carboxylic acid benzyl ester]"
10,0.0196,"O=C(O)COc1ccc(Cl)cc1C1c2scnc2CCN1C(=O)CCOc1ccc(F)cc1 (racemic) [Example 21, (±)-(4-Chloro-2-{5-[3-(4-fluoro-phenoxy)-propionyl]-4,5,6,7-tetrahydro-thiazolo[5,4-c]pyridin-4-yl}-phenoxy)-acetic acid]"
11,0.0065,"O=C(O)COc1ccc(Cl)cc1C1c2scnc2CCN1C(=O)[C@@H]1C[C@H]1c1ccccc1C(F)(F)F (mixture of isomers) [Example 23, (±)-(4-Chloro-2-{trans-5-[2-(2-trifluoromethyl-phenyl)-cyclopropanecarbonyl]-4,5,6,7-tetrahydro-thiazolo[5,4-c]pyridin-4-yl}-phenoxy)-acetic acid]"
12,0.0073,"O=C(O)COc1ccc(Cl)cc1C1c2scnc2CCN1C(=O)[C@@H]1C[C@H]1c1ccccc1Cl (mixture of isomers) [Example 24, (±)-(4-Chloro-2-{trans-5-[2-(2-chloro-phenyl)-cyclopropanecarbonyl]-4,5,6,7-tetrahydro-thiazolo[5,4-c]pyridin-4-yl}-phenoxy)-acetic acid]"
13,0.0065,"Cc1ccccc1[C@@H]1C[C@H]1C(=O)N1CCc2ncsc2C1c1cc(Cl)ccc1OCC(=O)O (mixture of isomers) [Example 25, (±)-{4-Chloro-2-[trans-5-(2-o-tolyl-cyclopropanecarbonyl)-4,5,6,7-tetrahydro-thiazolo[5,4-c]pyridin-4-yl]-phenoxy}-acetic acid]"
14,0.0451,"COc1ccc2[nH]cc(CCC(=O)N3CCc4ncsc4C3c3cc(Cl)ccc3OCC(=O)O)c2c1 (racemic) [Example 26, (±)-(4-Chloro-2-{5-[3-(5-methoxy-1H-indol-3-yl)-propionyl]-4,5,6,7-tetrahydro-thiazolo[5,4-c]pyridin-4-yl}-phenoxy)-acetic acid]"
15,0.219,"Cc1[nH]c2ccccc2c1CCC(=O)N1CCc2ncsc2C1c1cc(Cl)ccc1OCC(=O)O (racemic) [Example 27, (±)-(4-Chloro-2-{5-[3-(2-methyl-1H-indol-3-yl)-propionyl]-4,5,6,7-tetrahydro-thiazolo[5,4-c]pyridin-4-yl}-phenoxy)-acetic acid]"
16,0.0256,"Cc1ccccc1CCC(=O)N1CCc2ncsc2C1c1cc(Cl)ccc1OCC(=O)O (racemic) [Example 29, (±)-{4-Chloro-2-[5-(3-o-tolyl-propionyl)-4,5,6,7-tetrahydro-thiazolo[5,4-c]pyridin-4-yl]-phenoxy}-acetic acid]"
17,0.0081,"O=C(O)COc1ccc(Cl)cc1C1c2scnc2CCN1C(=O)CCCc1ccccc1F (racemic) [Example 30, (±)-(4-Chloro-2-{5-[4-(2-fluoro-phenyl)-butyryl]-4,5,6,7-tetrahydro-thiazolo[5,4-c]pyridin-4-yl}-phenoxy)-acetic acid]"
18,0.005,"O=C(O)COc1ccc(Cl)cc1C1c2scnc2CCN1C(=O)COCc1ccccc1Cl (racemic) [Example 31, (±)-(4-Chloro-2-{5-[2-(2-chloro-benzyloxy)-acetyl]-4,5,6,7-tetrahydro-thiazolo[5,4-c]pyridin-4-yl}-phenoxy)-acetic acid]"
19,0.0832,"Cc1ccc(OCC(=O)N2CCc3ncsc3C2c2cc(Cl)ccc2OCC(=O)O)c(C)n1 (racemic) [Example 32, (±)-(4-Chloro-2-{5-[2-(2,6-dimethyl-pyridin-3-yloxy)-acetyl]-4,5,6,7-tetrahydro-thiazolo[5,4-c]pyridin-4-yl}-phenoxy)-acetic acid]"
20,0.0874,"O=C(O)COc1ccc(Cl)cc1C1c2scnc2CCN1C(=O)COc1ccccc1 (racemic) [Example 34, (±)-{4-Chloro-2-[5-(2-phenoxy-acetyl)-4,5,6,7-tetrahydro-thiazolo[5,4-c]pyridin-4-yl]-phenoxy}-acetic acid]"
21,0.355,"C[C@@H](CC(=O)N1CCc2ncsc2C1c1cc(Cl)ccc1OCC(=O)O)c1ccccc1 (mixture of isomers) [Example 35, (±)-{4-Chloro-2-[5-((S)-3-phenyl-butyryl)-4,5,6,7-tetrahydro-thiazolo[5,4-c]pyridin-4-yl]-phenoxy}-acetic acid]"
22,0.733,"O=C(O)COc1ccc(Cl)cc1C1c2scnc2CCN1C(=O)C1Cc2ccccc2C1 (racemic) [Example 36, (±)-{4-Chloro-2-[5-(indane-2-carbonyl)-4,5,6,7-tetrahydro-thiazolo[5,4-c]pyridin-4-yl]-phenoxy}-acetic acid]"
